SMILES strings stand for the structures. Where “and” joins values, the source holds several entries; their conditions need not be identical. Equal values may be shown once. Where a name gives a salt, the structure may show the parent alone. Some results are limits rather than exact numbers.

Test [1] relates to Staphylococcus aureus MW2 delta-mecA (mecA-). Kind of test: IC50 (growth, competition assay). Particulars: cefoxitin: subinhibitory. An outline of the steps: (§1)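 Pre-induced, 1:1-mixed fluorescent S. aureus MW2 mecA+ and ΔmecA strains were grown 20 h at 37 °C, 90% humidity, unshaken, in LB with a daily-set subinhibitory cefoxitin dose, in 1536-well plates. Compounds were given on five- or nine-point 2-fold gradients, in two dye-swapped replicates. DsRed (540/590) and GFP (485/520) were scaled per plate between single-strain control medians, with No Treatment then set to 0.5. Per-strain IC50 was the dose halving the No Treatment signal, or the maximal signal.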

The test system of test [2] is Staphylococcus aureus MW2 (mecA+). Kind of test: IC50 (growth, competition assay). To be noted: cefoxitin: subinhibitory. In short, it runs like this: as §1

The term IC50 denotes the concentration needed to halve the response being measured. In the case of `CO[C@H]1/C=C/O[C@@]2(C)Oc3c(C)c(O)c4c(c3C2=O)C2=NC3(CCN(CC(C)C)CC3)NC2=C(NC(=O)/C(C)=C\C=C\[C@H](C)[C@H](O)[C@@H](C)[C@@H](O)[C@@H](C)[C@H](OC(C)=O)[C@@H]1C)C4=O` [Rifabutin], the IC50 in test [1] (fluorescent label: DsRed), in test [1] (fluorescent label: GFP), in test [2] (fluorescent label: DsRed) and in test [2] (fluorescent label: GFP) was less than 0.498 µM throughout.
As for `COc1c(N2CCNC(C)C2)c(F)cc2c(=O)c(C(=O)O)cn(C3CC3)c12` (configuration not stated) [TEQUIN], the IC50 in test [1] (fluorescent label: DsRed), in test [1] (fluorescent label: GFP), in test [2] (fluorescent label: DsRed) and in test [2] (fluorescent label: GFP) was less than 9.85 µM in each case.
With `CCc1cc(-c2n[nH]c(C)c2-c2ccc3c(c2)OCCO3)c(O)cc1O`, the IC50 in test [1] (fluorescent label: DsRed) is 15.4 µM; in test [1] (fluorescent label: GFP), less than 9.85 µM; in test [2] (fluorescent label: DsRed) it was 82.7 µM; in test [2] (fluorescent label: GFP), 102 µM.
As to `COc1ccc(COc2ccc(Cc3cnc(N)nc3N)cc2OC)cc1` [GW2580], the concentration for half-maximal inhibition (IC50) in test [1] (fluorescent label: DsRed) is less than 9.85 µM; in test [1] (fluorescent label: GFP), less than 9.85 µM; in test [2] (fluorescent label: DsRed), 15.1 µM; in test [2] (fluorescent label: GFP), 16.2 µM.
As for `N[C@@H](C(=O)N[C@@H]1C(=O)N2C(C(=O)O)=C(Cl)CS[C@H]12)c1ccccc1` [CECLOR], the IC50 is less than 9.85 µM in test [1] (fluorescent label: DsRed), less than 9.85 µM in test [1] (fluorescent label: GFP), 87.9 µM in test [2] (fluorescent label: DsRed) and 87.8 µM in test [2] (fluorescent label: GFP).
With `CC(C)N(CCC(=O)c1ccc2ccccc2c1)Cc1ccccc1`, the IC50 in test [1] (fluorescent label: DsRed) was less than 9.85 µM; in test [1] (fluorescent label: GFP), less than 9.85 µM; in test [2] (fluorescent label: DsRed) it was < 9.85 µM and 16.8 µM; in test [2] (fluorescent label: GFP), 14.1 µM and 22.4 µM.
`CN(N=O)C(=O)N[C@@H]1[C@@H](O)[C@H](O)[C@@H](CO)O[C@@H]1O` [ZANOSAR]: the IC50 in test [1] (fluorescent label: DsRed), in test [1] (fluorescent label: GFP), in test [2] (fluorescent label: DsRed) and in test [2] (fluorescent label: GFP) was less than 9.85 µM in each case.
As to `OCCN1CCN(CCCN2c3ccccc3Sc3ccc(Cl)cc32)CC1` [Perphenazine], the IC50 in test [1] (fluorescent label: DsRed) came out at 27.1 µM; in test [1] (fluorescent label: GFP) it was 21.1 µM; in test [2] (fluorescent label: DsRed), 70.8 µM; in test [2] (fluorescent label: GFP), 65.7 µM.
As to `CCCCC(CC)CN=C(N)N=C(N)NCCCCCCNC(N)=NC(N)=NCC(CC)CCCC` (configuration not stated) [ALEXIDINE HYDROCHLORIDE], the IC50 in test [1] (fluorescent label: DsRed), in test [1] (fluorescent label: GFP), in test [2] (fluorescent label: DsRed) and in test [2] (fluorescent label: GFP) was less than 9.85 µM in each case.
Regarding `CC(C)n1cnc2c(NCCc3ccc(O)cc3)nc(-c3csc4ccccc34)nc21` [StemRegenin 1], the IC50 in test [1] (fluorescent label: DsRed) turned out to be 15.1 µM; in test [1] (fluorescent label: GFP), 11.2 µM; in test [2] (fluorescent label: DsRed) it was 25.6 µM; in test [2] (fluorescent label: GFP), 29.9 µM.
In the same order, the values of `CN(C)[C@@H]1C(O)=C(C(N)=O)C(=O)[C@@]2(O)C(O)=C3C(=O)c4c(O)cccc4[C@@](C)(O)[C@H]3[C@H](O)[C@@H]12` [TERRAMYCIN] are less than 9.85 µM, less than 9.85 µM, less than 9.85 µM and less than 9.85 µM.
Taken in the same sequence, the figures for `O=c1[nH]c(=O)n([C@H]2C[C@H](O)[C@@H](CO)O2)cc1F` [FLOXURIDINE] were less than 9.85 µM, less than 9.85 µM, less than 9.85 µM and less than 9.85 µM.
In the case of `Clc1ccc(CO/N=C(\Cn2ccnc2)c2ccc(Cl)cc2Cl)c(Cl)c1` [OXISTAT], the IC50 in test [1] (fluorescent label: DsRed) amounted to 30.4 µM; in test [1] (fluorescent label: GFP) it was 17.3 µM; in test [2] (fluorescent label: DsRed) it was 35.3 µM; in test [2] (fluorescent label: GFP), 43.3 µM.
In the same order, the values of `Cc1cc(C(C#N)c2ccc(Cl)cc2)c(Cl)cc1NC(=O)c1cc(I)cc(I)c1O` (configuration not stated) [FLUKIVER] are less than 9.85 µM, less than 9.85 µM, less than 9.85 µM and less than 9.85 µM.
Taken in the same sequence, the figures for `CCCCCCCCCCCCCCCC(=O)O[C@@H]1[C@@H](O)[C@@H](O)[C@@H]([C@H](NC(=O)[C@@H]2C[C@@H](CCC)CN2C)[C@H](C)Cl)O[C@@H]1SC` [Clindamycin palmitate HCl] were less than 9.85 µM, less than 9.85 µM, less than 9.85 µM and less than 9.85 µM.
Take `Nc1ccc(/N=N/c2ccccc2)c(N)n1` [PYRIDIUM]: the IC50 in test [1] (fluorescent label: DsRed), in test [1] (fluorescent label: GFP), in test [2] (fluorescent label: DsRed) and in test [2] (fluorescent label: GFP) was more than 150 µM in each case.
For `C[C@@H](Oc1cc(-c2cnn(C3CCNCC3)c2)cnc1N)c1c(Cl)ccc(F)c1Cl`, the concentration for half-maximal inhibition (IC50) in test [1] (fluorescent label: DsRed) was 20.9 µM; in test [1] (fluorescent label: GFP) it was 17 µM; in test [2] (fluorescent label: DsRed), 101 µM; in test [2] (fluorescent label: GFP) it was 108 µM.
Taken in the same sequence, the figures for `C[C@H]1COc2c(C3(N)CC3)c(F)cc3c(=O)c(C(=O)O)cn1c23` [PAZUCROSS] were less than 9.85 µM, less than 9.85 µM, less than 9.85 µM and less than 9.85 µM.
In the same order, the values of `CN1CCN(c2c(F)cc3c(=O)c(C(=O)O)cn4c3c2OCN4C)CC1` [Marbofloxacin] are 2.09 µM, 1.19 µM, 6.41 µM and 6.33 µM.
Taken in the same sequence, the figures for `O=C1C2CC=CCC2C(=O)N1SC(Cl)(Cl)Cl` (configuration not stated) [CAPTAN] were less than 9.85 µM, less than 9.85 µM, 15.7 µM and 18 µM.
Turning to `COC(=O)CC[C@@H](C)[C@H]1CC[C@H]2[C@@H]3CC[C@@H]4C[C@H](O)CC[C@]4(C)[C@H]3C[C@H](O)[C@]12C` [METHYL DEOXYCHOLATE], the IC50 in test [1] (fluorescent label: DsRed) stood at 13.9 µM; in test [1] (fluorescent label: GFP), 9.91 µM; in test [2] (fluorescent label: DsRed), 15.4 µM; in test [2] (fluorescent label: GFP), 26.9 µM.
Taken in the same sequence, the figures for `CN(CC(=O)N(Cc1ccc(C2CCCCC2)cc1)c1ccc(C(=O)O)cc1)S(=O)(=O)c1c(F)c(F)c(F)c(F)c1F` [SH-4-54] were less than 9.85 µM, less than 9.85 µM, less than 9.85 µM and 11.5 µM.
Taken in the same sequence, the figures for `C[C@H]1COC2=C1C(=O)C(=O)c1c2ccc2c1CCCC2(C)C` [CRYPTOTANSHINONE] were 11.3 µM, 10.5 µM, 13 µM and 15.7 µM.
As for `CC[C@H]1OC(=O)[C@H](C)[C@@H](O[C@H]2C[C@@](C)(OC)[C@@H](O)[C@H](C)O2)[C@H](C)[C@@H](O[C@@H]2O[C@H](C)C[C@H](N(C)C)[C@H]2O)[C@](C)(O)C[C@@H](C)C(=O)[C@H](C)[C@@H](O)[C@]1(C)O` [ERYDERM], the 50% inhibitory concentration (IC50) in test [1] (fluorescent label: DsRed), in test [1] (fluorescent label: GFP), in test [2] (fluorescent label: DsRed) and in test [2] (fluorescent label: GFP) was less than 9.85 µM throughout.
As to `CN[C@@H]1C[C@@H](c2ccc(Cl)c(Cl)c2)c2ccccc21` [Indatraline hydrochloride], the IC50 in test [1] (fluorescent label: DsRed) is 36.2 µM; in test [1] (fluorescent label: GFP), 52.3 µM; in test [2] (fluorescent label: DsRed), 70.1 µM; in test [2] (fluorescent label: GFP), 98.4 µM.
As to `OCCN1CCN(CC/C=C2/c3ccccc3Sc3ccc(C(F)(F)F)cc32)CC1` [cis-(Z)-Flupenthixol dihydrochloride], the IC50 in test [1] (fluorescent label: DsRed) is 12.9 µM; in test [1] (fluorescent label: GFP), less than 9.85 µM; in test [2] (fluorescent label: DsRed) it was 34.6 µM; in test [2] (fluorescent label: GFP) it was 42.6 µM.
In the same order, the values of `CSc1nc2cc(Cl)c(Oc3cccc(Cl)c3Cl)cc2[nH]1` [TRICLABENDAZOLE] are less than 9.85 µM, less than 9.85 µM, 14.4 µM and 13.9 µM.
Taken in the same sequence, the figures for `C=CC1=C(C(=O)O)N2C(=O)[C@@H](NC(=O)/C(=N\O)c3csc(N)n3)[C@H]2SC1` [Cefdinir (Omnicef)] were less than 0.498 µM, less than 0.498 µM, 4.17 µM and 3.6 µM.
